“Also recorded” adds a separate entry of the source.
What was measured:
[1] = system: rat hippocampal astrocytes; experiment: [3H]D-serine transport into primary cultures of rat hippocampal astrocytes; format: cell-based; conditions: for IC50: Astrocyte, inhibition of [3H]D-serine transport, rat hippocampal astrocytes, means of at least two determinations; for fraction of D-serine transport represented by the component for which the compound shows higher affinity: two-component inhibition curves in astrocytes
human ASCT1 = biological target: T1, human ASCT1 (Homo sapiens, UniProt P43007); experiment: transport into HEK cells expressing ASCT1; format: cell-based; conditions: [3H]L-serine transport, HEK cells
T1 construct: expressed in transfected cells; host or cells: HEK (human embryonic kidney) cells
T1 sequence (P43007 1-532): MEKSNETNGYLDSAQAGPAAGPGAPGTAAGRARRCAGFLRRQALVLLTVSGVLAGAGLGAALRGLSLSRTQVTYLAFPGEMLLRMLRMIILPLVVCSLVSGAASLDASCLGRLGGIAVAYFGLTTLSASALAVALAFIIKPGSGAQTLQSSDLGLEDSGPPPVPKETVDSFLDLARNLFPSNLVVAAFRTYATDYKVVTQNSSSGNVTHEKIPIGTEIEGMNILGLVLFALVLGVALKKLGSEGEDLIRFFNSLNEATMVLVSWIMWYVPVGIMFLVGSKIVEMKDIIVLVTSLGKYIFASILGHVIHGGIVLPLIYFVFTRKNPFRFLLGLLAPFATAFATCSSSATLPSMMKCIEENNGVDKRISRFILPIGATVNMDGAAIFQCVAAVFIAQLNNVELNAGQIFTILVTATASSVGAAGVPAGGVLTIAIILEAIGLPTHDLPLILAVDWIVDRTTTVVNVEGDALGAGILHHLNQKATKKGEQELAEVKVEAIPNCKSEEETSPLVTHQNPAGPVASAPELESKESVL
Experimental: (§1) Cell-based assays: the transport of [^3H]L- or D-serine was measured in primary cultures of rat hippocampal astrocytes or in human embryonic kidney (HEK) cells expressing ASCT transporter sub-types. For the astrocyte assays, cells were plated on either 24- or 96-well plates at a density of 50,000 cells per well. For the HEK assays, cells were plated on coated 96-well plates at a density of 80,000 cells/well. Assays were conducted in duplicate at room temperature in assay buffer consisting of: NaCl: 150 mM, KCl: 2 mM; MgCl2: 1 mM; CaCl2: 1 mM; HEPES: Tris buffer: 10 mM, pH7.4. To assess the sodium-dependence of transport, NaCl was replaced in the assay buffer by equimolar choline chloride. Following aspiration of growth medium and 2 washes with assay buffer, cells were incubated with [^3H]L- or D-serine at a final concentration of 1 μM for 5 min (astrocytes) or 1 min (HEK cells), after which the incubation medium was aspirated and the cells washed twice with ice-cold assay buffer. Cells containing radiolabel were solubilized in 100 μl of 1% Triton-X100 and an aliquot counted in a beta counter. IC50 values were determined over a range of at least 6 concentrations and derived from curve-fitting algorithms available in GraphPad Prism 4.

asc-1 = biological target: T2, asc-1 (Rattus norvegicus, UniProt P63116); experiment: sodium-independent [3H]D-serine transport into rat forebrain synaptosomes; format: biochemical; conditions: inhibition of [3H]D-serine transport, rat brain synaptosomes; means of at least two determinations
T2 construct: from tissue; host or cells: rat forebrain P2 (synaptosome) fraction
T2 sequence (P63116 1-530): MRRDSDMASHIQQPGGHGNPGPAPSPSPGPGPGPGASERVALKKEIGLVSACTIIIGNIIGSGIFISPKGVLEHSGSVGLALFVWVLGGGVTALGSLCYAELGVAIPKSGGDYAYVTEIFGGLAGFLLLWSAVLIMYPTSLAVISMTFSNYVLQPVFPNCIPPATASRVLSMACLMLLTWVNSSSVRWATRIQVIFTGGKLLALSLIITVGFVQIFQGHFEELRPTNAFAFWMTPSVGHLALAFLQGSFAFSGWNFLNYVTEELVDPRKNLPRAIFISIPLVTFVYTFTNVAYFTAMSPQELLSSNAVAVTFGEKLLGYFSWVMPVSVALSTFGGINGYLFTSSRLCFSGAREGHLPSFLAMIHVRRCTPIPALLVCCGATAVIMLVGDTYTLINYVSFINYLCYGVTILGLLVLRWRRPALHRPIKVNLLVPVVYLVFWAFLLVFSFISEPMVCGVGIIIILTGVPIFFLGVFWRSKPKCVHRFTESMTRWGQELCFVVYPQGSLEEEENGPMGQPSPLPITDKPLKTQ
T2 sequence (Q794F9 1-527 partner): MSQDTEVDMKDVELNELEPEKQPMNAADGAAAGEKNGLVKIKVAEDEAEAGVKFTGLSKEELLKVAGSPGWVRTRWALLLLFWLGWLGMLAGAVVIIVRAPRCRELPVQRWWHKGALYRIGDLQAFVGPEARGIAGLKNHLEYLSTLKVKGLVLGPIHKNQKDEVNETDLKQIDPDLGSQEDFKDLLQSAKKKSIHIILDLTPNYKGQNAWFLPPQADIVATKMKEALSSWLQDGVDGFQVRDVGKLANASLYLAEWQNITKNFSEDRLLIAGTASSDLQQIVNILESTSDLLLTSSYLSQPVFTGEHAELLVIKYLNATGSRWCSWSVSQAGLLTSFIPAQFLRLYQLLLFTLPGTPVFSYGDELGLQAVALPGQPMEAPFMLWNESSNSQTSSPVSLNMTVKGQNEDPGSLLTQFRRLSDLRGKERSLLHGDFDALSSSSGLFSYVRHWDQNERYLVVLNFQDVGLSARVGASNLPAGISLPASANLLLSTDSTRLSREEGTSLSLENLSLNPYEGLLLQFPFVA
Experimental: Under the assay conditions used, the sodium-independent transport of D-serine by rodent forebrain synaptosomes is mediated by asc-1 (Rutter et al., 2007), and the sodium-dependent transport of D-serine into astrocytes in culture is mediated by an ASCT transporter, ASCT2 according to the literature (Ribeiro et al., 2002).
Synaptosome assays: a P2 fraction of rat forebrain was prepared and assayed immediately. Aliquots of the P2 preparation (approx. 1 mg of original tissue weight) were incubated in sodium-free assay buffer (CholineCl: 128 mM, KCl: 3.5 mM; KH2PO4: 1.5 mM; MgCl2: 1 mM; CaCl2: 1 mM; glucose: 10 mM; Tris-acetate buffer: 10 mM, pH7.4) containing [^3H]D-serine (final concentration of 50 nM) and test compounds in duplicate for 4 mins at room temperature. The synaptosomes containing radiolabel were collected by filtration onto Whatman GF/C filters, and washed twice with ice cold assay buffer. Filters were solubilized in scintillation fluid and radioactivity determined in a beta counter. IC50 values were determined as described for the cell-based assays above.

[2] = system: amphetamine-induced hyperlocomotion in mice; experiment: amphetamine induced hyperactivity; format: in vivo; conditions: for effect on amphetamine-induced hyperactivity/hyperlocomotion: systemic administration, amphetamine 2 mg/kg s.c.
Experimental: C57B/6 male mice (n=5-10/group) were placed in an open field apparatus and their activity was measured for 30 minutes. At 30 minutes, they received a vehicle injection or injection of test compound followed by an injection of amphetamine (2 mg/kg, s.c.) at minute 45. Their activity levels were subsequently measured for another 1 hour post-injection. Total activity for each 5 minute bin (21 total bins) was added to establish the activity curve over the 105 minute testing.

[3] = system: LTP in the rat hippocampal slice; experiment: LTP in the rat hippocampal slice preparation; conditions: 100 μM
human ASCT2 = biological target: T3, human ASCT2 (Homo sapiens, UniProt Q15758); experiment: transport into HEK cells expressing ASCT2; format: cell-based; conditions: [3H]L-serine transport, HEK cells
T3 construct: expressed in transfected cells; host or cells: HEK (human embryonic kidney) cells
T3 sequence (Q15758 1-541): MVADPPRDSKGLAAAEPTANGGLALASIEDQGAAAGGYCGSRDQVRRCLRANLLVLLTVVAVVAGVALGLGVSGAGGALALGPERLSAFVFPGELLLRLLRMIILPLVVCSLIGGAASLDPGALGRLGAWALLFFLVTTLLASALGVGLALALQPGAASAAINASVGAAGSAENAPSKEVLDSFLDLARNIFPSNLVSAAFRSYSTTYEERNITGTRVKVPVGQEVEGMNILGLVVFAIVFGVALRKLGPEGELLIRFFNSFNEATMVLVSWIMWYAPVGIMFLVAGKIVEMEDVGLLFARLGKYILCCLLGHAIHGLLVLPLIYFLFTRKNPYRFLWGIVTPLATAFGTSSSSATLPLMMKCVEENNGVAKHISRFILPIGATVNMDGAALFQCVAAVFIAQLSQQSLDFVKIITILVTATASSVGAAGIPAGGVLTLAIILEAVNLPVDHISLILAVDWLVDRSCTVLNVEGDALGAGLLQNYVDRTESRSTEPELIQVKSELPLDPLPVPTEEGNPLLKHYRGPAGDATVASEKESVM
Experimental: as §1

ASCT2 = conditions: Utsunomiya-Tate 1996; Broer 1999; Torres-Zamorano 1998; cited from earlier work

SMILES	IC50 [1] [µM]	IC50 (asc-1) [µM]	other results
O=C(O)[C@@H]1C[C@@H](O)CN1 [L-trans-4-hydroxyproline]	38.9	> 10000	fraction of D-serine transport represented by the component for which the compound shows higher affinity [1]: approximately 60%; selectivity for ASCT1 over ASCT2 (human ASCT1; listed as L-t-4OHPro): showed selectivity towards ASCT1; selectivity for ASCT1 over ASCT2 (human ASCT1; listed as L-trans-4OHPro): selective for ASCT1
O=C(O)[C@@H]1C[C@@H](Cc2ccc(Cl)cc2Cl)CN1 [R-gamma-2,4-dichlorobenzyl-L-proline]	–	–	effect on amphetamine-induced hyperactivity/hyperlocomotion [2]: effective
N[C@@H](CSCc1ccccc1)C(=O)O [S-benzyl-L-cysteine]	–	86	–
NC(=O)C[C@H](N)C(=O)O [L-asparagine]	–	668	–
NC(=O)CC[C@H](N)C(=O)O [L-glutamine]	1640	943	fraction of D-serine transport represented by the component for which the compound shows higher affinity [1]: approximately 40%; selectivity for ASCT2 over ASCT1 (human ASCT2): showed selectivity towards ASCT2; also recorded: selective for ASCT2; affinity for ASCT2 reported in the literature (ASCT2): 23 to 70 µM

The next lines start with results.

IC50 [1] [µM]	IC50 (asc-1) [µM]	SMILES	other results
–	453	N[C@@H](CCC(=O)Nc1ccc([N+](=O)[O-])cc1)C(=O)O [L-GPNA, L-gamma-glutamyl-4-nitroanilide]	effect on LTP in the rat hippocampal slice [3]: enhance LTP
597	29.3	N[C@@H](CSc1ccccc1)C(=O)O [S-phenyl-L-cysteine]	–
27.9	258	N[C@H](C(=O)O)c1ccc(F)cc1 [L-4-fluorophenylglycine]	effect on amphetamine-induced hyperlocomotion at 0.3 mg/kg ip ([2]; 0.3 mg/kg ip): significant effect; effect on amphetamine-induced hyperactivity/hyperlocomotion [2]: potent dose-dependent inhibitor
57.9	9.6	N[C@@H](CO)C(=O)O [L-serine]	–
3000	62	N[C@@H](CCC(=O)OCc1ccccc1)C(=O)O [L-glutamate-γ-benzyl ester]	–
1570	348	NC(C(=O)O)c1ccccc1F (racemic) [DL-2-fluorophenylglycine]	–

Source: US8741955B2, “D-serine transporter inhibitors as pharmaceutical compositions for the treatment of central nervous system disorders” (Allergan, Inc., priority 2011, dated 2014)
